Data on one compound can be found in patent publication US11680264B2, “Methods of modulating melanosome pH and melanin level in cells” (Cornell University, priority 2016, dated 2023).

Assay type in all cases: cell-based
The test system of assay [1] is sAC^KO mouse melanocytes. Put plainly: Cellular eumelanin content. The following applies: 96 hours. The protocol: (§1) FIGS. 15A-15J provide the results of experiments analyzing the effect of sAC activity on melanin production. FIG. 15A is a graph illustrating the cellular eumelanin and pheomelanin content in sAC^FF (FF) and sAC^KO (KO) mouse melanocytes. Numbers above bars represent the ratio of pheomelanin to eumelanin. Average of triplicate determinations. FIG. 15B is a graph illustrating the cellular eumelanin content of sAC^FF and sAC^KO mouse melanocytes grown for 96 hours in the absence (−, DMSO) or presence of KH7 (+, 30 μM). Average of triplicate determinations. FIG. 15C is a graph illustrating the fold over baseline cellular eumelanin level of human melanocytes (n=8) treated with KH7 (30 μM) or vehicle (DMSO) for 48 hours. All assays performed in triplicate. Students t-test **P<0.01, ****P<0.0001. FIG. 15D is images of cell pellets of sAC^FF and sAC^KO mouse melanocytes. FIG. 15E is a graph of the melanin levels of pairs of sAC^FF and sAC^KO mouse melanocytes. FIGS. 15F and 15G are images of cell pellets of sAC^FF mouse melanocytes grown in the absence (DMSO, FIGS. 15G and 15F, left panels) or presence of KH7 (FIG. 15G, 30 μM, right panel) or LRE1 (FIG. 15F, 50 μM, right panel) for 96 hours. FIG. 15H is images of cell pellets of human melanocytes (C226, C38) treated with vehicle control (DMSO, left) or KH7 (30 μM, right) for 48 hours. FIG. 15I is images of cell pellets of human melanocytes (C226) treated with vehicle control (DMSO, left) or ESl-09 (10 μM, right) for 48 hours. FIG. 15J is a graph illustrating the fold over baseline cellular (eumelanin) level of human melanocytes treated with ESl-09 (10 μM) or vehicle (DMSO) for 48 hours (n=3, distinct human cell lines). For FIGS. 15E and 15J Students t-test, *p<0.05, **p<0.01, ****p<0.0001.

The test system of assay [2] is sAC^FF mouse melanocytes. Put plainly: Cellular eumelanin content. The following applies: KH7 30 μM or LRE1 50 μM, 96 hours. The protocol:
as §1

For a further assay, the system named is human melanocytes. Put plainly: DAMP melanosome pH assay (HMB45 co-staining). The following applies: 4 hours, KH7 30 μM, cAMP 500 μM, H89 10 μM, ESI-09 10 μM. How it is done: (§2) N-{3-[(2,4-dinitrophenyl)amino]propyl}-N-(3-aminopropyl)methylamine dihydrochloride (DAMP) is a weakly basic amine that is taken up in acidic organelles of live cells and which has been used to measure melanosome pH (Bin et al., PLOS One, 10(6):e0129273 (2015); Tabata et al., Cell Tissue Res., 332(3): 447-460 (2008)). Cells were cultured on sterile glass coverslips in 24-mm wells at 50×10^3 cells/coverslip. […] After permeabilization with 0.1% Triton X-100 in Buffer A at −20° C., the cells were labeled with the supplied anti-DNP antibody (Oxford Biomedical Research) according to kit protocol. Melanosomes were identified using the monoclonal antibody (anti-HMB45, 1:40, Santa Cruz Biotechnology). Fluorescence was detected after secondary staining with Alexa Fluor 546 donkey anti-goat IgG antibody (Invitrogen) and Alexa Fluor 647 donkey anti-mouse IgG antibody (Invitrogen). All quantitative analyses were performed using the Object Count tool in Nikon AR 4.60. For each image, the lower intensity threshold limit of each fluorescence channel was defined as the intensity of the dimmest punctum returned using the 3 points circle threshold tool. The upper intensity threshold limit was set to the maximum value. Equivalent diameter (EqDiameter) was restricted to 1.85-30.00 pixels. Circularity was restricted to 0.20-1.00. Mean fluorescence intensity was measured for all DAMP^+ puncta. Melanosomes were identified as HMB45^+ puncta. DAMP measurements were only recorded when colocalized with HMB45. Frequency distributions were generated for each sample from mean DAMP fluorescence intensity of DAMP^+ melanosomes. All analyses were performed on two replicate coverslips (n≥15 cells per coverslip). Melanosomes were first identified as TRP1^+ or tyrosinase^+ puncta. sAC^+ melanosomes were identified as R52^+ or R21^+ puncta colocalizing with TRP1^+ or tyrosinase^+ puncta. The degree of colocalization between sAC and melanosomes was calculated as the number of sAC+ melanosomes divided by the total number of melanosomes and expressed as a percentage.
The effect of sAC inhibition on melanosome pH was also assessed in human melanocytes.

The test system of assay [3] is sAC^KO mouse melanocytes. Put plainly: DAMP melanosome pH assay (HMB45 co-staining). The note with it: 4 hours, KH7 30 μM, cAMP analogs 500 μM, ESI-09 10 μM, MSH 100 nM. The protocol:
as §2
(§3) The effect of pharmacologic inhibition of sAC was also measured using the DAMP assay described above. Briefly, Cells were cultured on sterile glass coverslips in 24-mm wells at 50×10^3 cells/coverslip and treated or not treated for 4 hours with 30 μM KH7 or LRE1. […] After permeabilization with 0.1% Triton X-100 in Buffer A at −20° C., the cells were labeled with the supplied anti-DNP antibody (Oxford Biomedical Research) according to kit protocol. Melanosomes were identified using the monoclonal antibody (anti-HMB45, 1:40, Santa Cruz Biotechnology). Fluorescence was detected after secondary staining with Alexa Fluor 546 donkey anti-goat IgG antibody (Invitrogen) and Alexa Fluor 647 donkey anti-mouse IgG antibody (Invitrogen). All images were acquired using a Zeiss LSM 880 and analyzed using NIS-Elements AR 4.60 (Nikon).

The test system of assay [4] is sAC^FF mouse melanocytes. Put plainly: DAMP melanosome pH assay (HMB45 co-staining). The following applies: KH7 30 μM, 4 hours. The protocol: as §2, §3

Take `CC(Sc1nc2ccccc2[nH]1)C(=O)N/N=C/c1cc(Br)ccc1O` (stereo not drawn) [KH7]: the results for the eumelanin levels entry in the assay with sAC^KO mouse melanocytes [1] and with sAC^FF mouse melanocytes [2] were “had no effect” and “increased eumelanin levels”, respectively. Besides, the results for the “melanosome pH (DAMP), substance alone” value with human melanocytes and with sAC^KO mouse melanocytes [3] were “alkaline shift in melanosome pH” and “had no effect”, respectively. Also, the HMB45 staining intensity entry in the assay on sAC^FF mouse melanocytes [4] (mouse melanocytes) was “had no effect”. Also, in the assay on sAC^FF mouse melanocytes [4] (sAC^FF mouse melanocytes, cAMP 500 μM, H89 10 μM, PKI 10 μM, ESI-09 10 μM), the “melanosome pH (DAMP uptake at HMB45 positive melanosomes), substance alone” value is recorded as “reduction in DAMP uptake (alkaline shift in pH)”.
